Results on 1 molecule are retold here after patent publication US20090041818A1, “ANTIVIRAL AGENT, AND FABRIC AND ANTIVIRAL MEMBER […] AGENT” (priority 2003, published 2009).

This experiment relates to influenza type A virus, Cygnus columbianus/Shimane/499/83 (H5N3) (avian strain).

As for `[O]=[Ca]` [Sample 1, calcium oxide], the “antiviral effect (in words, comparison of samples)” value is given as “high antiviral effect”.
